Converted amounts (≈) assume the structure as drawn. “And” between values parts separate entries of the source, which are not always exact repeats. Equal values may be shown once. Values belong to the compound of their own block, whether it stands above or below them.
Assays:
[1] = in vitro; details: human, microsomes
[2] = in vitro; details: human, microsomes; remark: listed apart in the source
[3] = system: Trypanosoma cruzi; experiment: (§1) DNDI: Chagas in Vitro; format: functional, organism-based, Tulahuen C4 (LacZ)
[4] = (§2) DNDI: Solubility in phosphate buffer at pH 6.5 determined by nephelometry; format: physicochemical
[5] = (§3) DNDI: Lipophilicity (gLogD) at pH 3; format: physicochemical; details: buffer
[6] = (§4) DNDI: Cytotoxicity against L-6 rat myoblasts from skeletal musclE; details: L6 rat skeletal muscle myoblasts, IC50
[7] = in vitro; details: human, microsomes; remark: listed apart in the source
[8] = system: Trypanosoma brucei rhodesiense; experiment: DNDI: HAT in Vitro; format: functional, organism-based; details: ATCC 30027
[9] = system: Trypanosoma cruzi; experiment: as §1; format: functional, Tulahuen C4 (LacZ)
[10] = DNDI: Lipophilicity (eLogD) at pH 7.4; format: physicochemical; details: buffer
[11] = DNDI: Solubility, 24 hour, 50 mM phosphate - pH 7.4, 37C; format: physicochemical; details: 50 mM phosphate buffer, read-out: Equilibrium
[12] = DNDI: Solubility in 0.01M HCl at pH 2 determined by nephelometry
[13] = system: Leishmania donovani; experiment: DNDI: Inhibition of formation of Leishmania donovani; format: functional, MHOM/ET/67/L82; set-up: concentration or dose not given beside the values
[14] = as §2
[15] = (§5) DNDI: Stability, 4 hour; format: ADME, cell-free, Canis lupus familiaris; details: dog, plasma
[16] = DNDI: Protein binding in mouse plasma; format: ADME, cell-free; details: read-out: % bound
[17] = DNDI: pKa; format: physicochemical; details: read-out: pKa(1)
[18] = DNDI: Protein binding in rat plasma; format: ADME, cell-free; details: read-out: % bound
[19] = DNDI: Solubility, 24 hour, SGF, 37C; format: physicochemical; details: read-out: Equilibrium
[20] = DNDI: Lipophilicity (gLogD) at pH 7.4; details: buffer
[21] = molecular target: Cytochrome P450 2D6 (Homo sapiens, UniProt P10635); experiment: (§6) DNDI: CYP Inhibition; format: ADME
Cytochrome P450 2D6, sequence (P10635 whole entry): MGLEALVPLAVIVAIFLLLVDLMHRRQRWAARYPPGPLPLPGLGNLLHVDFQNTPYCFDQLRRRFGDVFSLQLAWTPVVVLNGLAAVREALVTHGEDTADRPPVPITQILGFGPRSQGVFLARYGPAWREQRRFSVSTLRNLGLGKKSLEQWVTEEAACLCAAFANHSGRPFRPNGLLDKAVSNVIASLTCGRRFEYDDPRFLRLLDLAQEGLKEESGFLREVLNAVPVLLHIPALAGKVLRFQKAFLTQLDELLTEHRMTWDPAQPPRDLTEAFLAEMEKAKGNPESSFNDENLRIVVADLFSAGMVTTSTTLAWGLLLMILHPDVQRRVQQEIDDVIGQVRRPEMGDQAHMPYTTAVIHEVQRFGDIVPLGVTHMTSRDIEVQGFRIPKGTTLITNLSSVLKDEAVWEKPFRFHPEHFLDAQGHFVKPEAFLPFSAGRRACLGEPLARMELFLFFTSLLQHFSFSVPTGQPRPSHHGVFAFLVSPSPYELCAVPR

[22] = molecular target: T1, Cytochrome P450 1A2 (Homo sapiens, UniProt P05177); experiment: as §6; format: ADME
T1 sequence (P05177 whole entry): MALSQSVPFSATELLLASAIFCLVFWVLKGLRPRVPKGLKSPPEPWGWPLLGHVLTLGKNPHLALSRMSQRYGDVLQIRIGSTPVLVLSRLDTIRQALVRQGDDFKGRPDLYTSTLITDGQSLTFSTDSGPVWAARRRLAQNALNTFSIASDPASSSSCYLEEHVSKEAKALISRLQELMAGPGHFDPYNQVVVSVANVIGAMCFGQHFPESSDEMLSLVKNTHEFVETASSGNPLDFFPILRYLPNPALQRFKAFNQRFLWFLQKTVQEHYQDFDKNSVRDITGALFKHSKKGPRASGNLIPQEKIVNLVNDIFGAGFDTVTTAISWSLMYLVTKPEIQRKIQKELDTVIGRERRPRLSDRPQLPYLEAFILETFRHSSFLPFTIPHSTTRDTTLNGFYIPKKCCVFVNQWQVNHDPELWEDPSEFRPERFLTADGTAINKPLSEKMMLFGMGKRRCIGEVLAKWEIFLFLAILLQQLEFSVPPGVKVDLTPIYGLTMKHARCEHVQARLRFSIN

[23] = DNDI: Solubility, 24 hour, 50 mM Phosphate - pH 2, 37C; format: physicochemical; details: 50 mM phosphate buffer, read-out: Equilibrium
[24] = in vitro; details: mouse, microsomes
[25] = DNDI: Protein binding in dog plasma; format: ADME, cell-free, Canis lupus familiaris; details: read-out: % bound
[26] = DNDI: Protein binding in human plasma; format: ADME, cell-free; details: read-out: % bound
[27] = DNDI: Solubility, 24 hour, FaSSIF, 37C; format: physicochemical; details: read-out: Equilibrium
[28] = DNDI: Protein binding 10% serum RPMI; format: ADME; details: RPMI medium with 10% serum; read-out: % bound (converted)
[29] = (§7) DNDI: Metabolism; format: ADME, Microsome; details: rat, microsomes; for hepatic extraction ratio: read-out: EH
[30] = DNDI: Protein binding in human liver microsomes; format: ADME, Microsome; details: read-out: % bound (converted)
[31] = DNDI: Lipophilicity (eLogD) at pH 5; format: physicochemical; details: buffer
[32] = DNDI: Solubility, 24 hour, 20 mM Citrate - pH 3, 37C; format: physicochemical; details: 20 mM citrate buffer, read-out: Equilibrium
[33] = as §7; format: ADME, Canis lupus familiaris, Microsome; details: dog, microsomes
[34] = as §5; format: ADME, tissue-based, Canis lupus familiaris; details: dog, blood
[35] = as §5; format: ADME, tissue-based; details: blood
[36] = in vitro; details: mouse, microsomes; remark: listed apart in the source
[37] = DNDI: Lipophilicity in water; format: physicochemical
[38] = as §3; details: buffer
[39] = DNDI: Solubility, 24 hour, FeSSIF, 37C; format: physicochemical; details: read-out: Equilibrium
[40] = as §5; format: ADME, cell-free; details: plasma
[41] = system: L6; experiment: as §4
[42] = molecular target: T2, Cytochrome P450 3A4 (Homo sapiens, UniProt P08684)
T2 sequence (P08684 whole entry): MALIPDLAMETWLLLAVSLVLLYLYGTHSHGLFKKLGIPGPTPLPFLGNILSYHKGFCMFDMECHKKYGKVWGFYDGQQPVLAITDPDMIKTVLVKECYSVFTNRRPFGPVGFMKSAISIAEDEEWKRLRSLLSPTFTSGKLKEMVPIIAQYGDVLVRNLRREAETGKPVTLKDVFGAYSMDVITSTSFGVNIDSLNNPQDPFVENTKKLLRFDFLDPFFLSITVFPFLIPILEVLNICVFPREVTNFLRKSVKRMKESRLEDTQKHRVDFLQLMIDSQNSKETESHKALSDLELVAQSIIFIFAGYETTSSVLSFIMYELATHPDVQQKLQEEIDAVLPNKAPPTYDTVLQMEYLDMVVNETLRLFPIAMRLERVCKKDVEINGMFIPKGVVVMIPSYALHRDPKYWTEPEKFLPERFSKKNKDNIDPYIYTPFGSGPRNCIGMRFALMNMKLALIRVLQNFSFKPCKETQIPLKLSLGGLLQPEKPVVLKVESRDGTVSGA

[43] = molecular target: T2, Cytochrome P450 3A4; remark: listed apart in the source
[44] = human, microsomes
[45] = human, microsomes; remark: listed apart in the source
[46] = human, microsomes; remark: listed apart in the source
[47] = Trypanosoma cruzi, Tulahuen C4 (LacZ)

half-life [1]: 56 min | microsomal CLint [2]: 30.9 µL/min/mg | IC50 [3]: 5.4 nM and 5 nM | IC50 [3, 47]: 3.65 nM | solubility kinetic [4]: < 1.6 µg/mL | chromatographic logD [5]: 5 | hepatic extraction ratio [7]: 0.63 | IC50 [8]: > 10 µM | IC90 [9]: 10 nM | IC90 [9, 47]: 9.15 nM
Structure (SMILES): FC(F)(F)c1ccc(N(c2cncnc2)C2CCN(c3ccc(C(F)(F)F)cn3)CC2)cc1
IC50 [6]: 93.2 µM

chromatographic logD [10]: > 6.05 | solubility thermodynamic at 24 h [11]: < 0.25 µg/mL | solubility kinetic [12]: > 100 µg/mL | half-life [1]: 45 min | solubility kinetic [14]: < 1.6 µg/mL | microsomal CLint [2]: 39 µL/min/mg | remaining at 4 h [15]: 102% | fraction unbound [16]: < 0.001 | pKa [17]: 2.41 | fraction unbound [18]: < 0.001 | solubility thermodynamic at 24 h [19]: 9680 µg/mL (≈ 20800 µM) | chromatographic logD ([20]; pH 7.4): > 5.3 | IC50 [21]: > 20 µM | IC50 [22]: > 20 µM | solubility thermodynamic at 24 h [23]: 1430 µg/mL (≈ 3070 µM) | half-life [24]: 70 min | IC50 [3]: 17 nM | IC50 [3, 47]: 14 nM | fraction unbound [25]: 0.01 | fraction unbound [26]: < 0.001 | solubility thermodynamic at 24 h [27]: < 0.25 µg/mL | fraction unbound [28]: 0.004 | half-life [29]: 115 min | microsomal CLint [29]: 15 µL/min/mg | fraction unbound [30]: 0.002 | chromatographic logD [31]: > 6.07 | solubility thermodynamic at 24 h [32]: 53.1 µg/mL (≈ 114 µM) | half-life [33]: 73 min | microsomal CLint [33]: 24 µL/min/mg | remaining at 4 h [34]: 108% | remaining at 4 h ([35]; human): 101% | remaining at 4 h ([35]; rat): 115% | microsomal CLint [36]: 25 µL/min/mg | logD [37]: > 5.95 | chromatographic logD ([38]; pH 3): 5 | solubility thermodynamic at 24 h [39]: 12.7 µg/mL (≈ 27.2 µM) | remaining at 4 h ([40]; human): 97% | remaining at 4 h ([40]; rat): 96% | IC90 [9]: 31 nM and 25 nM
Structure (SMILES): FC(F)(F)c1ccc(N(c2cccnc2)C2CCN(c3ccc(C(F)(F)F)cn3)CC2)cc1
% inhibition [13]: 37.9% | IC50 [6]: > 100 µM

solubility kinetic [12]: > 100 µg/mL | half-life [1]: 11.8 min | solubility kinetic [14]: 12.5 µg/mL (≈ 28.1 µM) | microsomal CLint [2]: 147 µL/min/mg | chromatographic logD ([20]; pH 7.4): 3.5 | IC50 [3]: 8 nM and 3.04 nM | half-life [29]: 21.8 min | microsomal CLint [29]: 79.3 µL/min/mg | hepatic extraction ratio [29]: 0.72 | IC50 [42]: 2.1 µM | hepatic extraction ratio [7]: 0.89 | chromatographic logD ([38]; pH 3): 2.4 | IC90 [9]: 47 nM and 8.38 nM
Structure (SMILES): Cc1noc(C)c1C(=O)N1CCC(N(c2ccc(C(F)(F)F)cc2)c2cccnc2)CC1
IC50 [41]: 78.5 µM | IC50 [6]: > 100 µM

Structure (SMILES): CC(O)C(C)N1CCC(N(c2ccc(C(F)(F)F)cc2)c2cccnc2)CC1 (stereo not drawn)
solubility kinetic [12]: > 100 µg/mL | IC50 [43]: > 20 µM | half-life ([1]; t (1 / 2)): 72.9 min | solubility kinetic [14]: 25 µg/mL (≈ 63.5 µM) | microsomal CLint ([2]; CLint): 23.8 µL/min/mg | chromatographic logD ([20]; pH 7.4, logD): 2.9 | t (1 / 2) [44]: 55.4 min | EH [45]: 0.57 | IC50 [3]: 424 nM and 75 nM | IC50 [41]: 59.6 µM | IC50 [6]: 64.8 µM | CLint [46]: 31.3 µL/min/mg | hepatic extraction ratio ([7]; EH): 0.64 | chromatographic logD ([38]; pH 3, logD): 1.3 | IC90 [9]: 960 nM and > 100 nM

solubility kinetic [12]: > 100 µg/mL | half-life [1]: 13.2 min | solubility kinetic [14]: 3.1 µg/mL (≈ 6.99 µM) | microsomal CLint [2]: 131 µL/min/mg | chromatographic logD ([20]; pH 7.4): 4.1 | IC50 [3]: 7.83 nM | IC50 [3, 47]: 15 nM | half-life [29]: 16.6 min | microsomal CLint [29]: 105 µL/min/mg | hepatic extraction ratio [29]: 0.77 | IC50 [42]: 4.4 µM | hepatic extraction ratio [7]: 0.88 | chromatographic logD ([38]; pH 3): 3.1 | IC90 [9]: 20.7 nM | IC90 [9, 47]: 28 nM
Structure (SMILES): O=C(c1ccc(F)cc1)N1CCC(N(c2ccc(C(F)(F)F)cc2)c2cccnc2)CC1
IC50 [41]: 44.5 µM | IC50 [6]: 54.3 µM

Structure (SMILES): FC(F)(F)c1ccc(N(c2cccnc2)C2CCN(C(c3ccccc3)C(F)(F)F)CC2)cc1 (stereo not drawn)
solubility kinetic [12]: > 100 µg/mL | IC50 [43]: > 20 µM | half-life ([1]; t (1 / 2)): 62.6 min | solubility kinetic [14]: 1.6 µg/mL (≈ 3.34 µM) | microsomal CLint ([2]; CLint): 27.7 µL/min/mg | chromatographic logD ([20]; pH 7.4, logD): > 5.3 | IC50 [3]: 5130 nM | IC50 [3, 47]: 5130 nM | IC50 [6]: > 100 µM | hepatic extraction ratio ([7]; EH): 0.61 | chromatographic logD ([38]; pH 3, logD): > 5.3 | IC50 [8]: > 10 µM | IC90 [9]: 8140 nM | IC90 [9, 47]: 8140 nM

From ChEMBL document CHEMBL3137440, “DNDi T. cruzi fenarimol series dataset from which preclinical candidate EPL-BS0967 was identified (see also related datasets: CHEMBL3137386 and CHEMBL2448688)”
